From patent publication US11319299B2, “Substituted carboxamides as inhibitors of WDR5 protein-protein binding” (PROPELLON THERAPEUTICS INC., priority 2016, dated 2022)

What follows are molecules tested against WDR5 (Homo sapiens (Human), UniProt P61964) (assay: Surface Plasmon Resonance (SPR) assay, KD and residence time). Conditions: surface plasmon resonance (SPR); read-out: WDR5 binding affinity (KD).
Assay type: binding

SMILES | Kd [nM]
C[C@@H]1CN(c2cc(F)c(-c3ccc(C(N)=O)c(F)c3)cc2NC(=O)c2c[nH]c(=O)cc2C(F)(F)F)C[C@H](C)N1C [Example 551, N-[5-(4-carbamoyl-3-fluorophenyl)-4-fluoro-2-[(3R,5S)-3,4,5-trimethylpiperazin-1-yl]phenyl]-6-oxo-4-(trifluoromethyl)-1H-pyridine-3-carboxamide] | 0.6
C[C@@H]1CN(c2cc(F)c(-c3ccc(F)c(C(N)=O)c3)cc2NC(=O)c2c[nH]c(=O)cc2C(F)F)C[C@H](C)N1C [Example 552, N-[5-(3-carbamoyl-4-fluorophenyl)-4-fluoro-2-[(3R,5S)-3,4,5-trimethylpiperazin-1-yl]phenyl]-4-(difluoromethyl)-6-oxo-1H-pyridine-3-carboxamide] | 3.1
C[C@@H]1CN(c2cc(F)c(-c3ccc(C(N)=O)c(F)c3)cc2NC(=O)c2c[nH]c(=O)cc2C(F)F)C[C@H](C)N1C [Example 553, N-[5-(4-carbamoyl-3-fluorophenyl)-4-fluoro-2-[(3R,5S)-3,4,5-trimethylpiperazin-1-yl]phenyl]-4-(difluoromethyl)-6-oxo-1H-pyridine-3-carboxamide] | 1
C[C@@H]1CN(c2cc(F)c(-c3ccc(F)c(C(N)=O)c3)cc2NC(=O)c2ccc(F)cc2C(F)(F)F)C[C@H](C)N1C [Example 556, 2-fluoro-5-[2-fluoro-5-[[4-fluoro-2-(trifluoromethyl)benzoyl]amino]-4-[(3R,5S)-3,4,5-trimethylpiperazin-1-yl]phenyl]benzamide] | 10.4
C[C@@H]1CN(c2cc(F)c(-c3cnc(N4CCOC(C)(C)C4)nc3)cc2NC(=O)c2ccc(F)cc2C(F)(F)F)C[C@H](C)N1C [Example 559, N-[5-[2-(2,2-dimethylmorpholin-4-yl)pyrimidin-5-yl]-4-fluoro-2-[(3R,5S)-3,4,5-trimethylpiperazin-1-yl]phenyl]-4-fluoro-2-(trifluoromethyl)benzamide] | 2.92
O=C(Nc1cc(-c2cnc(N3CCOCC3)nc2)c(F)cc1N1CCN(C2CC2)CC1)c1c[nH]c(=O)cc1C(F)(F)F [Example 561, N-[2-(4-cyclopropylpiperazin-1-yl)-4-fluoro-5-(2-morpholin-4-ylpyrimidin-5-yl)phenyl]-6-oxo-4-(trifluoromethyl)-1H-pyridine-3-carboxamide] | 23.5
C[C@@H]1CN(c2cc(F)c(-c3c[nH]c(=O)c(F)c3)cc2NC(=O)c2c[nH]c(=O)cc2C(F)(F)F)C[C@H](C)N1C [Example 562, N-[4-fluoro-5-(5-fluoro-6-oxo-1H-pyridin-3-yl)-2-[(3R,5S)-3,4,5-trimethylpiperazin-1-yl]phenyl]-6-oxo-4-(trifluoromethyl)-1H-pyridine-3-carboxamide] | 0.904
C[C@@H]1CN(c2cc(F)c(-c3cncc(NC(=O)OCc4ccccc4)c3)cc2NC(=O)c2c[nH]c(=O)cc2C(F)(F)F)C[C@H](C)N1C [Example 563, benzyl N-[5-[2-fluoro-5-[[6-oxo-4-(trifluoromethyl)-1H-pyridine-3-carbonyl]amino]-4-[(3R,5S)-3,4,5-trimethylpiperazin-1-yl]phenyl]pyridin-3-yl]carbamate] | 3.32
C[C@@H]1CN(c2cc(F)c(-c3cc(F)c(=O)n(C)c3)cc2NC(=O)c2c[nH]c(=O)cc2C(F)(F)F)C[C@H](C)N1C [Example 564, N-[4-fluoro-5-(5-fluoro-1-methyl-6-oxopyridin-3-yl)-2-[(3R,5S)-3,4,5-trimethylpiperazin-1-yl]phenyl]-6-oxo-4-(trifluoromethyl)-1H-pyridine-3-carboxamide] | 1.52
COc1ccc(C(=O)N2CC=C(c3cc(NC(=O)c4c[nH]c(=O)cc4C(F)(F)F)c(N4C[C@@H](C)N(C)[C@@H](C)C4)cc3F)CC2)cc1 [Example 565, N-[4-fluoro-5-[1-(4-methoxybenzoyl)-3,6-dihydro-2H-pyridin-4-yl]-2-[(3R,5S)-3,4,5-trimethylpiperazin-1-yl]phenyl]-6-oxo-4-(trifluoromethyl)-1H-pyridine-3-carboxamide] | 0.943
C[C@@H]1CN(c2cc(F)c(-c3cnc4c(c3)CC(=O)N4)cc2NC(=O)c2c[nH]c(=O)cc2C(F)(F)F)C[C@H](C)N1C [Example 566, N-[4-fluoro-5-(2-oxo-1,3-dihydropyrrolo[2,3-b]pyridin-5-yl)-2-[(3R,5S)-3,4,5-trimethylpiperazin-1-yl]phenyl]-6-oxo-4-(trifluoromethyl)-1H-pyridine-3-carboxamide] | 0.896
C[C@@H]1CN(c2cc(F)c(-c3ccn(C)c(=O)c3)cc2NC(=O)c2c[nH]c(=O)cc2C(F)(F)F)C[C@H](C)N1C [Example 567, N-[4-fluoro-5-(1-methyl-2-oxopyridin-4-yl)-2-[(3R,5S)-3,4,5-trimethylpiperazin-1-yl]phenyl]-6-oxo-4-(trifluoromethyl)-1H-pyridine-3-carboxamide] | 1.18
C[C@@H]1CN(c2cc(F)c(-c3ccc(=O)n(C)c3)cc2NC(=O)c2c[nH]c(=O)cc2C(F)(F)F)C[C@H](C)N1C [Example 568, N-[4-fluoro-5-(1-methyl-6-oxopyridin-3-yl)-2-[(3R,5S)-3,4,5-trimethylpiperazin-1-yl]phenyl]-6-oxo-4-(trifluoromethyl)-1H-pyridine-3-carboxamide] | 4.58
C[C@@H]1CN(c2cc(F)c(C3=CCN(C(=O)C4CCCCC4)CC3)cc2NC(=O)c2c[nH]c(=O)cc2C(F)(F)F)C[C@H](C)N1C [Example 569, N-[5-[1-(cyclohexanecarbonyl)-3,6-dihydro-2H-pyridin-4-yl]-4-fluoro-2-[(3R,5S)-3,4,5-trimethylpiperazin-1-yl]phenyl]-6-oxo-4-(trifluoromethyl)-1H-pyridine-3-carboxamide] | 1.99
COCCCN(C)C1CCN(c2cc(F)c(-c3cnc(N4CCOCC4)nc3)cc2NC(=O)c2c[nH]c(=O)cc2C(F)(F)F)C1 (stereo not shown) [Example 572, N-[4-fluoro-2-[3-[3-methoxypropyl(methyl)amino]pyrrolidin-1-yl]-5-(2-morpholin-4-ylpyrimidin-5-yl)phenyl]-6-oxo-4-(trifluoromethyl)-1H-pyridine-3-carboxamide] | 113
C[C@@H]1CN(c2cc(F)c(C3=CCN(C(=O)c4cnccn4)CC3)cc2NC(=O)c2c[nH]c(=O)cc2C(F)(F)F)C[C@H](C)N1C [Example 573, N-[4-fluoro-5-[1-(pyrazine-2-carbonyl)-3,6-dihydro-2H-pyridin-4-yl]-2-[(3R,5S)-3,4,5-trimethylpiperazin-1-yl]phenyl]-6-oxo-4-(trifluoromethyl)-1H-pyridine-3-carboxamide] | 2.19
COCCN(C)[C@@H]1CCN(c2cc(F)c(-c3cnc(N4CCOCC4)nc3)cc2NC(=O)c2c[nH]c(=O)cc2C(F)(F)F)C1 [Example 578, N-[4-fluoro-5-(2-morpholin-4-ylpyrimidin-5-yl)-2-[(3R)-3-[2-methoxyethyl(methyl)amino]pyrrolidin-1-yl]phenyl]-6-oxo-4-(trifluoromethyl)-1H-pyridine-3-carboxamide] | 16.9
C[C@@H]1CN(c2cc(F)c(-c3ccc(S(C)(=O)=O)nc3)cc2NC(=O)c2c[nH]c(=O)cc2C(F)(F)F)C[C@H](C)N1C [Example 581, N-[4-fluoro-5-(6-methylsulfonylpyridin-3-yl)-2-[(3R,5S)-3,4,5-trimethylpiperazin-1-yl]phenyl]-6-oxo-4-(trifluoromethyl)-1H-pyridine-3-carboxamide] | 0.768
C[C@@H]1CN(c2cc(F)c(-c3cnc(NS(C)(=O)=O)nc3)cc2NC(=O)c2c[nH]c(=O)cc2C(F)(F)F)C[C@H](C)N1C [Example 582, N-[4-fluoro-5-[2-(methanesulfonamido)pyrimidin-5-yl]-2-[(3R,5S)-3,4,5-trimethylpiperazin-1-yl]phenyl]-6-oxo-4-(trifluoromethyl)-1H-pyridine-3-carboxamide] | 5.78
C[C@@H]1CN(c2cc(F)c(C3=CCCN(c4ncc(C#N)cn4)C3)cc2NC(=O)c2c[nH]c(=O)cc2C(F)(F)F)C[C@H](C)N1C [Example 583, N-[5-[1-(5-cyanopyrimidin-2-yl)-3,6-dihydro-2H-pyridin-5-yl]-4-fluoro-2-[(3R,5S)-3,4,5-trimethylpiperazin-1-yl]phenyl]-6-oxo-4-(trifluoromethyl)-1H-pyridine-3-carboxamide] | 0.877
CN(CC1CC1)[C@@H]1CCN(c2cc(F)c(-c3cnc(N4CCOCC4)nc3)cc2NC(=O)c2c[nH]c(=O)cc2C(F)(F)F)C1 [Example 586, N-[4-fluoro-5-(2-morpholin-4-ylpyrimidin-5-yl)-2-[(3R)-3-[cyclopropylmethyl(methyl)amino]pyrrolidin-1-yl]phenyl]-6-oxo-4-(trifluoromethyl)-1H-pyridine-3-carboxamide] | 15.5
CN(CC1CC1)[C@@H]1CCN(c2cc(F)c(-c3cnc(N4CCOCC4)nc3)cc2NC(=O)c2cn(C)c(=O)cc2C(F)(F)F)C1 [Example 587, N-[4-fluoro-5-(2-morpholin-4-ylpyrimidin-5-yl)-2-[(3R)-3-[cyclopropylmethyl(methyl)amino]pyrrolidin-1-yl]phenyl]-1-methyl-6-oxo-4-(trifluoromethyl)pyridine-3-carboxamide] | 253
C[C@@H]1CN(c2cc(F)c(C3=CCN(c4ncc(C#N)cn4)C3)cc2NC(=O)c2c[nH]c(=O)cc2C(F)(F)F)C[C@H](C)N1C [Example 588, N-[5-[1-(5-cyanopyrimidin-2-yl)-2,5-dihydropyrrol-3-yl]-4-fluoro-2-[(3R,5S)-3,4,5-trimethylpiperazin-1-yl]phenyl]-6-oxo-4-(trifluoromethyl)-1H-pyridine-3-carboxamide] | 1.72
C[C@@H]1CN(c2cc(F)c(-c3ccc(F)c(C(N)=O)c3)cc2NC(=O)c2cn(C)c(=O)cc2C(F)(F)F)C[C@H](C)N1C [Example 589, N-[5-(3-carbamoyl-4-fluorophenyl)-4-fluoro-2-[(3R,5S)-3,4,5-trimethylpiperazin-1-yl]phenyl]-1-methyl-6-oxo-4-(trifluoromethyl)pyridine-3-carboxamide] | 7.46
C[C@@H]1CN(c2cc(F)c(-c3ccc(C(N)=O)c(F)c3)cc2NC(=O)c2cn(C)c(=O)cc2C(F)(F)F)C[C@H](C)N1C [Example 590, N-[5-(4-carbamoyl-3-fluorophenyl)-4-fluoro-2-[(3R,5S)-3,4,5-trimethylpiperazin-1-yl]phenyl]-1-methyl-6-oxo-4-(trifluoromethyl)pyridine-3-carboxamide] | 3.32
